Converted amounts (≈) assume the structure as drawn. The source made the active and inactive calls. The rule behind the calls is not given here.
Experiments:
Candida albicans [1] = test: Antifungal activity against Candida albicans MTCC 227 assessed as growth inhibition after 24 hr by agar well diffusion method; assay type: functional; settings: MTCC 227, 24 h
Saccharomyces cerevisiae [2] = test: Antifungal activity against Saccharomyces cerevisiae MTCC 170 assessed as growth inhibition after 24 hr by agar well diffusion method; assay type: functional; settings: MTCC 170, 24 h
Bacillus subtilis [3] = test: Antibacterial activity against Bacillus subtilis MTCC 121 assessed as growth inhibition after 24 hr by agar well diffusion method; assay type: functional; settings: MTCC 121, 24 h
Staphylococcus aureus [4] = test: Antibacterial activity against Staphylococcus aureus MTCC 96 assessed as growth inhibition after 24 hr by agar well diffusion method; assay type: functional; settings: MTCC 96, 24 h
Candida albicans [5] = test: Antifungal activity against Candida albicans MTCC 227 assessed as growth inhibition at 4 mg/mL after 24 hr by agar well diffusion method; assay type: functional; settings: MTCC 227, 24 h, read-out: DIZ
Saccharomyces cerevisiae [6] = test: Antifungal activity against Saccharomyces cerevisiae MTCC 170 assessed as growth inhibition at 4 mg/mL after 24 hr by agar well diffusion method; assay type: functional; settings: MTCC 170, 24 h, read-out: DIZ
Escherichia coli = test: Antibacterial activity against Escherichia coli MTCC 1652 assessed as growth inhibition at 4 mg/mL after 24 hr by agar well diffusion method; assay type: functional, organism-based
Bacillus subtilis [7] = test: Antibacterial activity against Bacillus subtilis MTCC 121 assessed as growth inhibition at 4 mg/mL after 24 hr by agar well diffusion method; assay type: functional; settings: MTCC 121, 24 h, read-out: DIZ
Staphylococcus aureus [8] = test: Antibacterial activity against Staphylococcus aureus MTCC 96 assessed as growth inhibition at 4 mg/mL after 24 hr by agar well diffusion method; assay type: functional; settings: MTCC 96, 24 h, read-out: DIZ
Pseudomonas aeruginosa = test: microbe, parasite or virus in culture; settings: MTCC 741, 24 h, read-out: DIZ
Description: Antibacterial activity against Pseudomonas aeruginosa MTCC 741 assessed as growth inhibition at 4 mg/mL after 24 hr by agar well diffusion method

Row | Structure (SMILES) | MIC (Candida albicans [1]) | MIC (Saccharomyces cerevisiae [2]) | MIC (Bacillus subtilis [3]) | MIC (Staphylococcus aureus [4]) | zone of inhibition at 4000 µg/mL (Candida albicans [5]) | zone of inhibition at 4000 µg/mL (Saccharomyces cerevisiae [6]) | growth inhibition (GI) (Escherichia coli) | zone of inhibition at 4000 µg/mL (Bacillus subtilis [7]) | zone of inhibition at 4000 µg/mL (Staphylococcus aureus [8]) | zone of inhibition at 4000 µg/mL (Pseudomonas aeruginosa)
1 | COc1ccc(-c2cc(C(F)(F)F)c3c(-c4ccccc4)nn(-c4ccc(S(N)(=O)=O)cc4)c3n2)cc1 | 128 µg/mL (≈ 244 µM) | 256 µg/mL (≈ 488 µM) | 32 µg/mL (≈ 61 µM) | 64 µg/mL (≈ 122 µM) | 15.6 mm | 14.6 mm | inactive | 21.6 mm | 19.3 mm | 
2 | O=C(O)c1cn(C2CC2)c2cc(N3CCNCC3)c(F)cc2c1=O [CIPROFLOXACIN] |  |  | 5 µg/mL (≈ 15.1 µM) | 5 µg/mL (≈ 15.1 µM) |  |  |  | 24 mm | 26.6 mm | 22 mm
3 | NS(=O)(=O)c1ccc(-n2nc(-c3ccccc3)c3c(C(F)(F)F)cc(C(F)(F)F)nc32)cc1 | 64 µg/mL (≈ 132 µM) | 128 µg/mL (≈ 263 µM) | 32 µg/mL (≈ 65.8 µM) | 32 µg/mL (≈ 65.8 µM) | 15.6 mm | 14.6 mm | inactive | 21.6 mm | 22.6 mm | 

From ChEMBL document CHEMBL3045429, “Exploration of antimicrobial potential of pyrazolo[3,4-b]pyridine scaffold bearing benzenesulfonamide and trifluoromethyl moieties” (2013)
